In brackets after ≈: the same amount, converted by molar mass.
Tests used:
Staphylococcus aureus [1] = experiment: Antibacterial activity against methicillin-resistant Staphylococcus aureus 1029025 clinical isolate after 20 to 24 hrs by two-fold microdilution method; assay type: functional
Staphylococcus aureus [2] = experiment: Antibacterial activity against methicillin-resistant Staphylococcus aureus clinical isolate after 20 to 24 hrs by two-fold microdilution method; assay type: functional
Staphylococcus aureus [3] = experiment: Antibacterial activity against methicillin-resistant Staphylococcus aureus 1024010 clinical isolate after 20 to 24 hrs by two-fold microdilution method; assay type: functional
Staphylococcus aureus [4] = experiment: Antibacterial activity against methicillin-resistant Staphylococcus aureus 10844 clinical isolate after 20 to 24 hrs by two-fold microdilution method; assay type: functional
Staphylococcus aureus [5] = experiment: Antibacterial activity against methicillin-resistant Staphylococcus aureus 111423 clinical isolate after 20 to 24 hrs by two-fold microdilution method; assay type: functional
Staphylococcus aureus [6] = experiment: Antibacterial activity against methicillin-resistant Staphylococcus aureus 625032 clinical isolate after 20 to 24 hrs by two-fold microdilution method; assay type: functional
Staphylococcus aureus [7] = experiment: Antibacterial activity against methicillin-resistant Staphylococcus aureus 814039 clinical isolate after 20 to 24 hrs by two-fold microdilution method; assay type: functional
Staphylococcus aureus [8] = experiment: Antibacterial activity against methicillin-resistant Staphylococcus aureus 103054 clinical isolate after 20 to 24 hrs by two-fold microdilution method; assay type: functional
Staphylococcus aureus [9] = experiment: Antibacterial activity against methicillin-resistant Staphylococcus aureus 102849 clinical isolate after 20 to 24 hrs by two-fold microdilution method; assay type: functional
Staphylococcus aureus [10] = experiment: Antibacterial activity against methicillin-resistant Staphylococcus aureus 912014 clinical isolate after 20 to 24 hrs by two-fold microdilution method; assay type: functional
Staphylococcus aureus [11] = experiment: Antibacterial activity against methicillin-resistant Staphylococcus aureus 20339 clinical isolate after 20 to 24 hrs by two-fold microdilution method; assay type: functional
Staphylococcus aureus [12] = experiment: Antibacterial activity against methicillin-resistant Staphylococcus aureus 519028 clinical isolate after 20 to 24 hrs by two-fold microdilution method; assay type: functional
Staphylococcus aureus [13] = experiment: Antibacterial activity against methicillin-resistant Staphylococcus aureus 110328-1 clinical isolate after 20 to 24 hrs by two-fold microdilution method; assay type: functional
Staphylococcus aureus [14] = experiment: Antibacterial activity against methicillin-resistant Staphylococcus aureus 110834 clinical isolate after 20 to 24 hrs by two-fold microdilution method; assay type: functional
Staphylococcus aureus [15] = experiment: Antibacterial activity against methicillin-resistant Staphylococcus aureus 305026 clinical isolate after 20 to 24 hrs by two-fold microdilution method; assay type: functional
Staphylococcus aureus [16] = experiment: Antibacterial activity against methicillin-resistant Staphylococcus aureus 202045 clinical isolate after 20 to 24 hrs by two-fold microdilution method; assay type: functional
Staphylococcus aureus [17] = experiment: Antibacterial activity against methicillin-resistant Staphylococcus aureus 121969 clinical isolate after 20 to 24 hrs by two-fold microdilution method; assay type: functional
Staphylococcus aureus [18] = experiment: Antibacterial activity against methicillin-resistant Staphylococcus aureus 110432 clinical isolate after 20 to 24 hrs by two-fold microdilution method; assay type: functional
Staphylococcus aureus [19] = experiment: Antibacterial activity against methicillin-resistant Staphylococcus aureus 1216052 clinical isolate after 20 to 24 hrs by two-fold microdilution method; assay type: functional
Staphylococcus aureus [20] = experiment: Antibacterial activity against methicillin-resistant Staphylococcus aureus 1212221 clinical isolate after 20 to 24 hrs by two-fold microdilution method; assay type: functional
Staphylococcus aureus [21] = experiment: Antibacterial activity against methicillin-resistant Staphylococcus aureus 1214023 clinical isolate after 20 to 24 hrs by two-fold microdilution method; assay type: functional
Staphylococcus aureus [22] = experiment: Antibacterial activity against methicillin-resistant Staphylococcus aureus 316038 clinical isolate after 20 to 24 hrs by two-fold microdilution method; assay type: functional
Staphylococcus aureus [23] = experiment: Antibacterial activity against methicillin-resistant Staphylococcus aureus 214026 clinical isolate after 20 to 24 hrs by two-fold microdilution method; assay type: functional
Staphylococcus aureus [24] = experiment: Antibacterial activity against methicillin-resistant Staphylococcus aureus 20534 clinical isolate after 20 to 24 hrs by two-fold microdilution method; assay type: functional
Staphylococcus aureus [25] = experiment: Antibacterial activity against methicillin-resistant Staphylococcus aureus 1025022 clinical isolate after 20 to 24 hrs by two-fold microdilution method; assay type: functional
Staphylococcus aureus [26] = experiment: Antibacterial activity against methicillin-resistant Staphylococcus aureus 502025 clinical isolate after 20 to 24 hrs by two-fold microdilution method; assay type: functional
Staphylococcus aureus [27] = experiment: Antibacterial activity against methicillin-resistant Staphylococcus aureus 11703 clinical isolate after 20 to 24 hrs by two-fold microdilution method; assay type: functional
Staphylococcus aureus [28] = experiment: Antibacterial activity against methicillin-resistant Staphylococcus aureus 109016 clinical isolate after 20 to 24 hrs by two-fold microdilution method; assay type: functional
Staphylococcus aureus [29] = experiment: Antibacterial activity against methicillin-resistant Staphylococcus aureus 224001 clinical isolate after 20 to 24 hrs by two-fold microdilution method; assay type: functional
Staphylococcus aureus [30] = experiment: Antibacterial activity against methicillin-resistant Staphylococcus aureus 110325 clinical isolate after 20 to 24 hrs by two-fold microdilution method; assay type: functional
Staphylococcus aureus [31] = experiment: Antibacterial activity against methicillin-resistant Staphylococcus aureus 123152 clinical isolate after 20 to 24 hrs by two-fold microdilution method; assay type: functional
Staphylococcus aureus [32] = experiment: Antibacterial activity against methicillin-resistant Staphylococcus aureus GLH15 clinical isolate after 20 to 24 hrs by two-fold microdilution method; assay type: functional
Staphylococcus aureus [33] = experiment: Antibacterial activity against methicillin-resistant Staphylococcus aureus 1212057-1 clinical isolate after 20 to 24 hrs by two-fold microdilution method; assay type: functional
Staphylococcus aureus [34] = experiment: Antibacterial activity against methicillin-resistant Staphylococcus aureus 503025 clinical isolate after 20 to 24 hrs by two-fold microdilution method; assay type: functional
Streptococcus pyogenes = experiment: Antibacterial activity against Streptococcus pyogenes ATCC 19615 after 20 to 24 hrs by two-fold microdilution method; assay type: functional
[35] = Solubility of the compound in water at 25 degC measured after shaking for 4 hrs by UV method; assay type: physicochemical; conditions: buffer, 4 h
Staphylococcus aureus [36] = experiment: Antibacterial activity against methicillin-resistant Staphylococcus aureus 518036 clinical isolate after 20 to 24 hrs by two-fold microdilution method; assay type: functional
Staphylococcus aureus [37] = experiment: Antibacterial activity against methicillin-resistant Staphylococcus aureus 19950 clinical isolate after 20 to 24 hrs by two-fold microdilution method; assay type: functional
Staphylococcus aureus [38] = experiment: Antibacterial activity against methicillin-resistant Staphylococcus aureus 1207026 clinical isolate after 20 to 24 hrs by two-fold microdilution method; assay type: functional
Staphylococcus aureus [39] = experiment: Antibacterial activity against methicillin-resistant Staphylococcus aureus 1024004-2 clinical isolate after 20 to 24 hrs by two-fold microdilution method; assay type: functional
Staphylococcus aureus [40] = experiment: Antibacterial activity against methicillin-resistant Staphylococcus aureus 111625 clinical isolate after 20 to 24 hrs by two-fold microdilution method; assay type: functional
Staphylococcus aureus [41] = experiment: Antibacterial activity against methicillin-resistant Staphylococcus aureus 1111047-1 clinical isolate after 20 to 24 hrs by two-fold microdilution method; assay type: functional
Staphylococcus aureus [42] = experiment: Antibacterial activity against methicillin-resistant Staphylococcus aureus 504008 clinical isolate after 20 to 24 hrs by two-fold microdilution method; assay type: functional
Staphylococcus aureus [43] = experiment: Antibacterial activity against methicillin-resistant Staphylococcus aureus 530231 clinical isolate after 20 to 24 hrs by two-fold microdilution method; assay type: functional
Staphylococcus aureus [44] = experiment: Antibacterial activity against methicillin-resistant Staphylococcus aureus 131215 clinical isolate after 20 to 24 hrs by two-fold microdilution method; assay type: functional
Staphylococcus aureus [45] = experiment: Antibacterial activity against […] Staphylococcus aureus ATCC 25923 after 20 to 24 hrs by two-fold microdilution method; assay type: functional
Staphylococcus aureus [46] = experiment: Antibacterial activity against methicillin-resistant Staphylococcus aureus 1026211 clinical isolate after 20 to 24 hrs by two-fold microdilution method; assay type: functional

`O=C1c2cccnc2C(=O)c2c1c(C(=O)OCCCCCN1CCOCC1)c1ccc(Br)cn21` gave an MIC (Staphylococcus aureus [1]) of 0.031 mg/L (≈ 0.0589 µM), an MIC50 (Staphylococcus aureus [2]) of 0.031 mg/L (≈ 0.0589 µM) and an MIC90 (Staphylococcus aureus [2]) of 0.125 mg/L (≈ 0.237 µM). The MIC (Staphylococcus aureus [3]) was 0.031 mg/L (≈ 0.0589 µM), the MIC (Staphylococcus aureus [4]) was ≤ 0.0078 mg/L and the MIC (Staphylococcus aureus [5]) was 16 mg/L (≈ 30.4 µM). For the same molecule, the MIC (Staphylococcus aureus [6]) was 0.063 mg/L (≈ 0.12 µM), the MIC (Staphylococcus aureus [7]) was 0.125 mg/L (≈ 0.237 µM) and the MIC (Staphylococcus aureus [8]) was ≤ 0.0078 mg/L. It also gave an MIC (Staphylococcus aureus [9]) of 0.063 mg/L (≈ 0.12 µM), an MIC (Staphylococcus aureus [10]) of 0.063 mg/L (≈ 0.12 µM) and an MIC (Staphylococcus aureus [11]) of 0.063 mg/L (≈ 0.12 µM). The MIC (Staphylococcus aureus [12]) was ≤ 0.0078 mg/L, the MIC (Staphylococcus aureus [13]) was 0.031 mg/L (≈ 0.0589 µM) and the MIC (Staphylococcus aureus [14]) was 0.031 mg/L (≈ 0.0589 µM). For the same molecule, the MIC (Staphylococcus aureus [15]) was 0.063 mg/L (≈ 0.12 µM), the MIC (Staphylococcus aureus [16]) was 0.016 mg/L (≈ 0.0304 µM) and the MIC (Staphylococcus aureus [17]) was 0.063 mg/L (≈ 0.12 µM). The MIC (Staphylococcus aureus [18]) was ≤ 0.0078 mg/L, the MIC (Staphylococcus aureus [19]) was 16 mg/L (≈ 30.4 µM) and the MIC (Staphylococcus aureus [20]) was 0.031 mg/L (≈ 0.0589 µM). The MIC (Staphylococcus aureus [21]) was 0.125 mg/L (≈ 0.237 µM), the MIC (Staphylococcus aureus [22]) was 0.031 mg/L (≈ 0.0589 µM) and the MIC (Staphylococcus aureus [23]) was 0.063 mg/L (≈ 0.12 µM). The MIC (Staphylococcus aureus [24]) was 0.125 mg/L (≈ 0.237 µM), the MIC (Staphylococcus aureus [25]) was 0.031 mg/L (≈ 0.0589 µM) and the MIC (Staphylococcus aureus [26]) was 0.125 mg/L (≈ 0.237 µM). The MIC (Staphylococcus aureus [27]) was 0.063 mg/L (≈ 0.12 µM), the MIC (Staphylococcus aureus [28]) was ≤ 0.0078 mg/L and the MIC (Staphylococcus aureus [29]) was 0.25 mg/L (≈ 0.475 µM). For the same molecule, the MIC (Staphylococcus aureus [30]) was ≤ 0.0078 mg/L, the MIC (Staphylococcus aureus [31]) was 0.031 mg/L (≈ 0.0589 µM) and the MIC (Staphylococcus aureus [32]) was 0.031 mg/L (≈ 0.0589 µM). The MIC (Staphylococcus aureus [33]) was ≤ 0.0078 mg/L, the MIC (Staphylococcus aureus [34]) was 0.031 mg/L (≈ 0.0589 µM) and the MIC (Streptococcus pyogenes) was 8 mg/L (≈ 15.2 µM). The solubility [35] was “Insoluble”, the MIC (Staphylococcus aureus [36]) was 0.063 mg/L (≈ 0.12 µM) and the MIC (Staphylococcus aureus [37]) was 0.031 mg/L (≈ 0.0589 µM). For the same molecule, the MIC (Staphylococcus aureus [38]) was ≤ 0.0078 mg/L, the MIC (Staphylococcus aureus [39]) was 0.125 mg/L (≈ 0.237 µM) and the MIC (Staphylococcus aureus [40]) was ≤ 0.0078 mg/L. It also gave an MIC (Staphylococcus aureus [41]) of 0.063 mg/L (≈ 0.12 µM), an MIC (Staphylococcus aureus [42]) of 0.063 mg/L (≈ 0.12 µM) and an MIC (Staphylococcus aureus [43]) of 0.031 mg/L (≈ 0.0589 µM). For the same molecule, the MIC (Staphylococcus aureus [44]) was 0.016 mg/L (≈ 0.0304 µM), the MIC (Staphylococcus aureus [45]) was 0.016 mg/L (≈ 0.0304 µM) and the MIC (Staphylococcus aureus [46]) was ≤ 0.0078 mg/L.

Reference: ChEMBL document CHEMBL4004803, “Syntheses and antibacterial activity of soluble 9-bromo substituted indolizinoquinoline-5,12-dione derivatives” (Eur J Med Chem, 2017)
